Experimental findings from patent publication US9981940B2, “Aryl sulfide derivatives and aryl sulfoxide derivatives as acaricides and insecticides” (BAYER CROPSCIENCE AKTIENGESELLSCHAFT, priority 2013, dated 2018) are described below.

Molecules are shown by their SMILES.

The nature of series [1]: log P by HPLC (OECD Guideline 117), method [b] neutral range. The class given is physicochemical. The conditions noted are these: HPLC; for logP[b]: method [b] neutral range; for chromatographic logP: reversed-phase C18 HPLC column, neutral range, pH 7.8. How it is done: (§1) The log P values were determined analogously to OECD Guideline 117 (EC Directive 92/69/EEC) by HPLC (high-performance liquid chromatography) using reversed-phase columns (C 18), by the following methods:
[b] The LC-MS determination in the neutral range is effected at pH 7.8 with 0.001 molar aqueous ammonium hydrogencarbonate solution and acetonitrile as eluents; linear gradient from 10% acetonitrile to 95% acetonitrile.

A short description of series [2]: log P by HPLC (OECD Guideline 117), method [a] acidic range. The class given is physicochemical. The conditions noted are these: for logP[a]: HPLC, method [a] acidic range. On the procedure:
as §1
[a] The LC-MS determination in the acidic range is effected at pH 2.7 with 0.1% aqueous formic acid and acetonitrile (contains 0.1% formic acid) as eluents; linear gradient from 10% acetonitrile to 95% acetonitrile.

A further series relates to Tetranychus urticae. Put plainly: Tetranychus urticae spray test, OP-resistant (TETRUR). The class given is in vivo. The conditions noted are these: after 6 days. On the procedure:
Tetranychus urticae—Spray Test, OP-Resistant (TETRUR)
• Solvent: 78.0 parts by weight of acetone • 1.5 parts by weight of dimethylformamide • Emulsifier: 0.5 part by weight of alkylaryl polyglycol ether
To produce an appropriate active ingredient formulation, 1 part by weight of active ingredient is mixed with the specified amounts of solvent and emulsifier, and the concentrate is diluted to the desired concentration with emulsifier-containing water.
Discs of bean leaves (Phaseolus vulgaris) infested by all stages of the greenhouse red spider mite (Tetranychus urticae) are sprayed with an active ingredient formulation of the desired concentration.
After 6 days, the efficacy in % is determined 100% means that all the spider mites have been killed; 0% means that none of the spider mites have been killed.

The mark [3] stands for this setting: reversed-phase C18 HPLC column, pH 2.7, HPLC, acidic range, pH 2.7, read-out: log P[a].
[4] abbreviates: reversed-phase C18 HPLC column, pH 2.7, HPLC method [a], acidic range, read-out: logP[a].

For `Cc1cc(F)c(-n2ncn(C3CC3)c2=O)cc1[S+]([O-])CC(F)(F)F` (racemic) [Example 62], in series [1], the “logP[b]” value is on record as 1.69. The “logP[a]” value in series [2] came out at 1.69. In the series with Tetranychus urticae (application rate of 100 g/ha), this molecule yielded an efficacy of 100%.

On to `Cc1cc(F)c(-n2nc(C(C)(C)C)n(C3CC3)c2=O)cc1[S+]([O-])CC(F)(F)F` (racemic) [Example 64], for which the “logP[b]” value in series [1] is listed as 2.97. For the same molecule, in series [2], the “logP[a]” value was found to be 2.95. The same molecule had an efficacy in the series with Tetranychus urticae (application rate of 500 g/ha) of 100%.

As to `Cc1cc(F)c(-n2nc(C3CC3)n(C3CC3)c2=O)cc1[S+]([O-])CC(F)(F)F` (racemic) [Example 66], the “logP[b]” value in series [1] turned out to be 2.33. In series [2], the “logP[a]” value stood at 2.31. For the same molecule, the efficacy in the series on Tetranychus urticae (application rate of 500 g/ha) is recorded as 100%.

Turning to `Cc1cc(F)c(-n2nc(C(F)(F)F)n(C(C)(C)C)c2=O)cc1[S+]([O-])CC(F)(F)F` (racemic) [Example 68], the “logP[b]” value in series [1] was determined as 3.49. Also, in series [2], the “logP[a]” value is 3.54. The same molecule yielded an efficacy in the series with Tetranychus urticae (application rate of 500 g/ha) of 100%.

`Cc1cc(F)c(-n2nc(-c3cccc(F)c3)n(C3CC3)c2=O)cc1[S+]([O-])CC(F)(F)F` (racemic) [Example 70]: the “logP[b]” value in series [1] came to 2.87. For the same molecule, the “logP[a]” value in series [2] was 2.94. The molecule also returned an efficacy in the series on Tetranychus urticae (application rate of 500 g/ha) of 90%.

On to `Cc1cc(C)c([S+]([O-])CC(F)(F)F)cc1-n1nnn(C)c1=O` (racemic) [Example 297], for which the “logP[b]” value in series [1] amounted to 1.96. Moreover, the “logP[a]” value in series [2] is 1.96.

Consider `N#Cc1cc(F)c(-n2nc(C(F)(F)F)oc2=O)cc1[S+]([O-])CC(F)(F)F` (racemic) [Example 309], for which the “logP[b]” value in series [1] turned out to be 2.80. The “logP[a]” value in series [2] amounted to 2.86.

For `CCc1nn(-c2cc([S+]([O-])CC(F)(F)F)c(C)cc2F)c(=O)n1-c1cccnc1` (racemic) [Example 354], the “logP[b]” value in series [1] is recorded as 1.97. For the same molecule, in series [2], the “logP[a]” value came to 1.98.

As for `Cc1cc(F)c(-n2nnn(-c3ccc(C(F)(F)F)cc3)c2=O)cc1[S+]([O-])CC(F)(F)F` (racemic) [Example 445], the “logP[b]” value in series [1] is recorded as 3.72. Also, the “logP[a]” value in series [2] was 3.75.

Regarding `Cc1cc(F)c(-n2nc(C(=O)O)n(C(C)C)c2=O)cc1SCC(F)(F)F` [1-{2-Fluoro-4-methyl-5-[(2,2,2-trifluoroethyl)sulphanyl]phenyl}-4-isopropyl-5-oxo-4,5-dihydro-1H-1,2,4-triazole-3-carboxylic acid], the chromatographic logP in series [2] (setting [3]) was found to be 2.16.

For the molecule `Cc1ccc(SSc2cc(Br)ccc2C)cc1Br` [4-Bromo-2-[(3-bromo-4-methylphenyl)disulphanyl]-1-methylbenzene], the chromatographic logP in series [1] and in series [2] (setting [3]) was > 7.36 in each case.

With `CC(C)n1c(Br)n[nH]c1=O` [5-Bromo-4-isopropyl-2,4-dihydro-3H-1,2,4-triazol-3-one], the figures for the chromatographic logP in series [1] and in series [2] (setting [3]) were 0.83 and 0.86, respectively.

With `N#Cc1cc(F)c(-n2nc(C(F)(F)F)n(C3CC3)c2=O)cc1[S+]([O-])CC(F)(F)F` (stereo not drawn) [Example 47, 4-[4-Cyclopropyl-5-oxo-3-(trifluoromethyl)-4,5-dihydro-1H-1,2,4-triazol-1-yl]-5-fluoro-2-[(2,2,2-trifluoroethyl)sulphinyl]benzonitrile], the chromatographic logP in series [1] stood at 2.84; in series [2] (setting [4]), 2.92; in series [2] (setting [3]), 2.92.

Regarding `COc1ccc(-n2nc(C(F)(F)F)n(C3CC3)c2=O)cc1[S+]([O-])CC(F)(F)F` (stereo not drawn) [Example 53], the “logP[b]” value in series [1] was 2.93. Besides, the “logP[a]” value in series [2] is recorded as 3.03.

As to `CC=Cc1nn(-c2cc(SCC(F)(F)F)c(C)cc2F)c(=O)n1C1CC1` [Example 81], the “logP[b]” value in series [1] came to 3.49. The “logP[a]” value in series [2] was found to be 3.55.

In the case of `COc1nn(-c2ccc(C(F)(F)F)c([S+]([O-])CC(F)(F)F)c2)c(=O)n1C` (stereo not drawn) [Example 96, 5-Methoxy-4-methyl-2-{3-[(2,2,2-trifluoroethyl)sulphinyl]-4-(trifluoromethyl)phenyl}-2,4-dihydro-3H-1,2,4-triazol-3-one], the chromatographic logP worked out at 2.83 in series [1], 2.89 in series [2] (setting [4]) and 2.89 in series [2] (setting [3]).

With `COc1nn(-c2ccc(C(F)(F)F)c([S+]([O-])CC(F)(F)F)c2)c(=O)n1C1CC1` (stereo not drawn) [Example 147], the “logP[b]” value in series [1] came out at 3.19. Moreover, the “logP[a]” value in series [2] worked out at 3.27.

On to `Cc1ccc(-n2nc(OC3CCOC3)n(C)c2=O)cc1SCC(F)(F)F` (stereo not drawn) [Example 156], for which the “logP[b]” value in series [1] is given as 3.27. For the same molecule, the “logP[a]” value in series [2] was found to be 3.27.

Turning to `Cc1cc(F)c(-n2nc(OC3CCOC3)n(C)c2=O)cc1[S+]([O-])CC(F)(F)F` (stereo not drawn) [Example 161], the “logP[b]” value in series [1] is reported as 1.84. Moreover, in series [2], the “logP[a]” value stood at 1.89.

Take `Cc1ccc(-n2nc(OC(C)C)n(C)c2=O)cc1[S+]([O-])CC(F)(F)F` (stereo not drawn) [Example 163]: the “logP[b]” value in series [1] is listed as 2.80. Moreover, the “logP[a]” value in series [2] stood at 2.87.

Regarding `Cc1ccc(-n2nc(OCC(C)C)n(C)c2=O)cc1[S+]([O-])CC(F)(F)F` (stereo not drawn) [Example 167], in series [1], the “logP[b]” value stood at 3.26. Also, the “logP[a]” value in series [2] is 3.31.

As for `COc1nn(-c2ccc(Br)c(SCC(F)(F)F)c2)c(=O)n1C` [Example 168], the “logP[b]” value in series [1] was 3.54. In series [2], the “logP[a]” value is 3.60.

For the molecule `COc1nn(-c2cc([S+]([O-])CC(F)(F)F)c(Br)cc2F)c(=O)n1C` (stereo not drawn) [Example 174], the “logP[b]” value in series [1] worked out at 2.15. In addition, the “logP[a]” value in series [2] is given as 2.21.

Turning to `CCn1c(OC)nn(-c2cc([S+]([O-])CC(F)(F)F)c(C)cc2F)c1=O` (stereo not drawn) [Example 181], in series [1], the “logP[b]” value stood at 2.07. The “logP[a]” value in series [2] came out at 2.11.

Regarding `O=c1n(-c2cc(SCC(F)(F)F)c(Cl)cc2F)nc(OCC(F)(F)F)n1C1CC1` [Example 186], in series [1], the “logP[b]” value was determined as 3.89. Further, in series [2], the “logP[a]” value is on record as 3.96.

Take `CCOc1nn(-c2ccc(C)c(SCC(F)(F)F)c2)c(=O)n1OC` [Example 227]: the “logP[b]” value in series [1] turned out to be 3.70. For the same molecule, the “logP[a]” value in series [2] is reported as 3.76.

Turning to `Cc1cc(F)c(-n2nn[nH]c2=O)cc1SCC(F)(F)F` [Example 299, 1-{2-Fluoro-4-methyl-5-[(2,2,2-trifluoroethyl)sulphanyl]phenyl}-1,4-dihydro-5H-tetrazol-5-one], the chromatographic logP in series [1] was determined as 0.9; in series [2] (setting [4]), 2.45; in series [2] (setting [3]) it was 2.45.

On to `N#Cc1cc(F)c(-n2nc(C(F)(F)F)oc2=O)cc1SCC(F)(F)F` [Example 308], for which, in series [1], the “logP[b]” value is recorded as 3.40. Moreover, the “logP[a]” value in series [2] is reported as 3.47.

Turning to `COC1=CC(=O)N(c2cc(SCC(F)(F)F)c(C)cc2Cl)C1` [Example 319], the “logP[b]” value in series [1] is 2.98. Moreover, the “logP[a]” value in series [2] is listed as 3.02.

As for `CCCOC1=CC(=O)N(c2cc([S+]([O-])CC(F)(F)F)c(C)cc2F)C1` (stereo not drawn) [Example 333], the “logP[b]” value in series [1] is listed as 2.52. The “logP[a]” value in series [2] is on record as 2.57.

With `Cc1cc(C)c(-n2ncn(Cc3ccccc3)c2=O)cc1SCC(F)(F)F` [Example 373], the “logP[b]” value in series [1] is 3.47. Moreover, the “logP[a]” value in series [2] is 3.55.

For `CCCSc1nn(-c2cc(SCC(F)(F)F)c(C)cc2F)c(=O)n1CC` [Example 426], the “logP[b]” value in series [1] came out at 4.29. For the same molecule, the “logP[a]” value in series [2] is 4.37.

`C=CCSc1nn(-c2cc([S+]([O-])CC(F)(F)F)c(C)cc2F)c(=O)n1CC=C` (stereo not drawn) [Example 432]: the “logP[b]” value in series [1] was determined as 3.05. Also, the “logP[a]” value in series [2] was 2.94.

With `Cc1cc(F)c(-n2nc(Br)n(Cc3ccccc3)c2=O)cc1[S+]([O-])CC(F)(F)F` (stereo not drawn) [Example 443], the “logP[b]” value in series [1] was 3.00. Also, the “logP[a]” value in series [2] is reported as 3.08.

Consider `Cc1cc(F)c(NC(=S)NCC(F)(F)F)cc1[S+]([O-])CC(F)(F)F` (stereo not drawn) [IIb-1, 1-{2-Fluoro-4-methyl-5-[(2,2,2-trifluoroethyl)sulphinyl]phenyl}-3-(2,2,2-trifluoroethyl)thiourea], for which the chromatographic logP in series [1] came to 2.3; in series [2] (setting [3]) it was 2.34.

For the molecule `Nc1cc(SCC(F)(F)F)c(Br)cc1F` [IVa-14, 4-Bromo-2-fluoro-5-[(2,2,2-trifluoroethyl)sulphanyl]aniline], the chromatographic logP amounted to 3.12 in series [1] and 3.15 in series [2] (setting [3]).

In the case of `N#Cc1cc(F)c(Br)cc1SCC(F)(F)F` [VIIa-18, 4-Bromo-5-fluoro-2-[(2,2,2-trifluoroethyl)sulphanyl]benzonitrile], the figures for the chromatographic logP in series [1] and in series [2] (setting [3]) were 3.26 and 3.32, respectively.

As to `N#Cc1cc(F)c(-n2nc(C(F)(F)F)n(C3CC3)c2=O)cc1F` [XXIV-1, 4-[4-Cyclopropyl-5-oxo-3-(trifluoromethyl)-4,5-dihydro-1H-1,2,4-triazol-1-yl]-2,5-difluorobenzonitrile], the “log P[a]” value in series [2] (pH 2.7) came to 2.90. In series [2] (pH 2.7, log P[a]), this molecule displayed a chromatographic logP of 2.91.

In the case of `COC(=O)c1nn(-c2cc(SSc3cc(-n4nc(C(=O)OC)n(C(C)C)c4=O)c(F)cc3C)c(C)cc2F)c(=O)n1C(C)C` [XXVIII-1, Dimethyl 1,1′-[disulphanediylbis(6-fluoro-4-methylbenzene-3,1-diyl)]bis(4-isopropyl-5-oxo-4,5-dihydro-1H-1,2,4-triazole-3-carboxylate)], the chromatographic logP in series [2] (setting [3]) was 4.11.
